Literature values, collected in patent US8153594B2, “Tacrolimus standard and methods of using same” (Siemens Healthcare Diagnostics Inc., priority 2006, dated 2012).

C=CC[C@@H]1/C=C(\C)C[C@H](C)C[C@H](OC)[C@H]2O[C@@](O)(C(=O)C(=O)N3CCCC[C@H]3C(=O)O[C@H](/C(C)=C/[C@@H]3CC[C@@H](O)[C@H](OC)C3)[C@H](C)[C@@H](O)CC1=O)[C@H](C)C[C@@H]2OC [tacrolimus, Tacrolimus]
Solubility in water: insoluble in water
